Experiments:
Test in all cases: relative viability (nuclei count vs DMSO), 5 days (fraction); higher = more cells survive
CAL-12T = test system: CAL-12T
Method in brief: (§1)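 After 5 days of treatment, lung cancer cells in 1536-well plates were fixed and stained in a single step (final 0.05% Triton X-100, 1% formaldehyde, 1 ug/ml Hoechst) and their nuclei counted on 4× images. Treatment had been applied by pin tool the day after seeding as one drug alone or as a fixed anchor-drug dose with five library-drug doses (not always all listed) in √10 steps. Relative viability is the nuclei count of treated wells divided by that of vehicle wells, and values are medians of duplicate plates.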

COR-L 105 = test system: COR-L 105
Method in brief: as §1

ChaGo-K-1 = test system: ChaGo-K-1
Method in brief: as §1

EKVX = test system: EKVX
Method in brief: as §1

EPLC-272H = test system: EPLC-272H
Method in brief: as §1

H3255 = test system: H3255
Method in brief: as §1

HCC-366 = test system: HCC-366
Method in brief: as §1

HCC-827 = test system: HCC-827
Method in brief: as §1

NCI-H1355 = test system: NCI-H1355
Method in brief: as §1

NCI-H1792 = test system: NCI-H1792
Method in brief: as §1

NCI-H1975 = test system: NCI-H1975
Method in brief: as §1

NCI-H1993 = test system: NCI-H1993
Method in brief: as §1

NCI-H2009 = test system: NCI-H2009
Method in brief: as §1

NCI-H2085 = test system: NCI-H2085
Method in brief: as §1

NCI-H2087 = test system: NCI-H2087
Method in brief: as §1

NCI-H2228 = test system: NCI-H2228
Method in brief: as §1

NCI-H2342 = test system: NCI-H2342
Method in brief: as §1

NCI-H322M = test system: NCI-H322M
Method in brief: as §1

NCI-H441 = test system: NCI-H441
Method in brief: as §1

NCI-H460 = test system: NCI-H460
Method in brief: as §1

SK-MES-1 = test system: SK-MES-1
Method in brief: as §1

Question: Which results are given for `CCNC(=O)c1noc(-c2cc(C(C)C)c(O)cc2O)c1-c1ccc(CN2CCOCC2)cc1` [Luminespib] + CC(=O)Nc1cccc(-n2c(=O)n(C3CC3)c(=O)c3c(Nc4ccc(I)cc4F)n(C)c(=O)c(C)c32)c1 [Trametinib] (partner 0.02 µM)?
Answer: relative viability (CAL-12T; first compound 0.002 µM): 0.321; relative viability (CAL-12T; first compound 0.006325 µM): 0.356; relative viability (CAL-12T; first compound 0.02 µM): 0.162; relative viability (CAL-12T; first compound 0.06325 µM): 0.111; relative viability (CAL-12T; first compound 0.2 µM): 0.117; relative viability (COR-L 105; first compound 0.002 µM): 0.46; relative viability (COR-L 105; first compound 0.006325 µM): 0.43; relative viability (COR-L 105; first compound 0.02 µM): 0.384; relative viability (COR-L 105; first compound 0.06325 µM): 0.265; relative viability (COR-L 105; first compound 0.2 µM): 0.278; relative viability (ChaGo-K-1; first compound 0.002 µM): 0.831; relative viability (ChaGo-K-1; first compound 0.006325 µM): 0.873; relative viability (ChaGo-K-1; first compound 0.02 µM): 0.884; relative viability (ChaGo-K-1; first compound 0.06325 µM): 0.861; relative viability (ChaGo-K-1; first compound 0.2 µM): 0.892; relative viability (EKVX; first compound 0.002 µM): 0.391; relative viability (EKVX; first compound 0.006325 µM): 0.326; relative viability (EKVX; first compound 0.02 µM): 0.219; relative viability (EKVX; first compound 0.06325 µM): 0.165; relative viability (EKVX; first compound 0.2 µM): 0.122; relative viability (EPLC-272H; first compound 0.002 µM): 0.278; relative viability (EPLC-272H; first compound 0.006325 µM): 0.309; relative viability (EPLC-272H; first compound 0.02 µM): 0.212; relative viability (EPLC-272H; first compound 0.06325 µM): 0.238; relative viability (EPLC-272H; first compound 0.2 µM): 0.0855; relative viability (H3255; first compound 0.002 µM): 0.549; relative viability (H3255; first compound 0.02 µM): 0.405; relative viability (H3255; first compound 0.06325 µM): 0.386; relative viability (H3255; first compound 0.2 µM): 0.278; relative viability (HCC-366; first compound 0.002 µM): 0.354; relative viability (HCC-366; first compound 0.006325 µM): 0.363; relative viability (HCC-366; first compound 0.02 µM): 0.349; relative viability (HCC-366; first compound 0.06325 µM): 0.026; relative viability (HCC-366; first compound 0.2 µM): 0.0301; relative viability (HCC-827; first compound 0.002 µM): 0.533; relative viability (HCC-827; first compound 0.006325 µM): 0.506; relative viability (HCC-827; first compound 0.02 µM): 0.279; relative viability (HCC-827; first compound 0.06325 µM): 0.154; relative viability (HCC-827; first compound 0.2 µM): 0.15; relative viability (NCI-H1355; first compound 0.002 µM): 0.421; relative viability (NCI-H1355; first compound 0.006325 µM): 0.445; relative viability (NCI-H1355; first compound 0.02 µM): 0.265; relative viability (NCI-H1355; first compound 0.06325 µM): 0.396; relative viability (NCI-H1355; first compound 0.2 µM): 0.158; relative viability (NCI-H1792; first compound 0.002 µM): 0.407; relative viability (NCI-H1792; first compound 0.006325 µM): 0.391; relative viability (NCI-H1792; first compound 0.02 µM): 0.317; relative viability (NCI-H1792; first compound 0.06325 µM): 0.0621; relative viability (NCI-H1792; first compound 0.2 µM): 0.0632; relative viability (NCI-H1975; first compound 0.002 µM): 0.349; relative viability (NCI-H1975; first compound 0.006325 µM): 0.334; relative viability (NCI-H1975; first compound 0.02 µM): 0.168; relative viability (NCI-H1975; first compound 0.06325 µM): 0.107; relative viability (NCI-H1975; first compound 0.2 µM): 0.118; relative viability (NCI-H1993; first compound 0.002 µM): 0.562; relative viability (NCI-H1993; first compound 0.006325 µM): 0.424; relative viability (NCI-H1993; first compound 0.02 µM): 0.488; relative viability (NCI-H1993; first compound 0.06325 µM): 0.461; relative viability (NCI-H1993; first compound 0.2 µM): 0.474; relative viability (NCI-H2009; first compound 0.002 µM): 0.271; relative viability (NCI-H2009; first compound 0.006325 µM): 0.225; relative viability (NCI-H2009; first compound 0.02 µM): 0.169; relative viability (NCI-H2009; first compound 0.06325 µM): 0.0625; relative viability (NCI-H2009; first compound 0.2 µM): 0.0698; relative viability (NCI-H2085; first compound 0.002 µM): 0.535; relative viability (NCI-H2085; first compound 0.006325 µM): 0.507; relative viability (NCI-H2085; first compound 0.02 µM): 0.33; relative viability (NCI-H2085; first compound 0.06325 µM): 0.202; relative viability (NCI-H2085; first compound 0.2 µM): 0.241; relative viability (NCI-H2087; first compound 0.002 µM): 0.197; relative viability (NCI-H2087; first compound 0.006325 µM): 0.218; relative viability (NCI-H2087; first compound 0.02 µM): 0.205; relative viability (NCI-H2087; first compound 0.06325 µM): 0.146; relative viability (NCI-H2087; first compound 0.2 µM): 0.11; relative viability (NCI-H2228; first compound 0.002 µM): 0.512; relative viability (NCI-H2228; first compound 0.006325 µM): 0.336; relative viability (NCI-H2228; first compound 0.02 µM): 0.133; relative viability (NCI-H2228; first compound 0.06325 µM): 0.0941; relative viability (NCI-H2228; first compound 0.2 µM): 0.106; relative viability (NCI-H2342; first compound 0.002 µM): 0.687; relative viability (NCI-H2342; first compound 0.006325 µM): 0.881; relative viability (NCI-H2342; first compound 0.02 µM): 0.551; relative viability (NCI-H2342; first compound 0.06325 µM): 0.889; relative viability (NCI-H2342; first compound 0.2 µM): 0.52; relative viability (NCI-H322M; first compound 0.002 µM): 0.494; relative viability (NCI-H322M; first compound 0.006325 µM): 0.535; relative viability (NCI-H322M; first compound 0.02 µM): 0.453; relative viability (NCI-H322M; first compound 0.06325 µM): 0.456; relative viability (NCI-H322M; first compound 0.2 µM): 0.407; relative viability (NCI-H441; first compound 0.002 µM): 0.555; relative viability (NCI-H441; first compound 0.006325 µM): 0.465; relative viability (NCI-H441; first compound 0.02 µM): 0.271; relative viability (NCI-H441; first compound 0.06325 µM): 0.0929; relative viability (NCI-H441; first compound 0.2 µM): 0.11; relative viability (NCI-H460; first compound 0.002 µM): 0.205; relative viability (NCI-H460; first compound 0.006325 µM): 0.124; relative viability (NCI-H460; first compound 0.02 µM): 0.0112; relative viability (NCI-H460; first compound 0.06325 µM): 0.0128; relative viability (NCI-H460; first compound 0.2 µM): 0.0152; relative viability (SK-MES-1; first compound 0.002 µM): 0.551; relative viability (SK-MES-1; first compound 0.006325 µM): 0.469; relative viability (SK-MES-1; first compound 0.02 µM): 0.576; relative viability (SK-MES-1; first compound 0.06325 µM): 0.177; relative viability (SK-MES-1; first compound 0.2 µM): 0.166

Reference: the supplement of paper PMC10307832
